Source: patent publication US20110160260A1, “Method of Treating a Neurodegenerative Disorder” (Chung Shan Medical University, priority 2009, published 2011)

Assays:
Assay type in all cases: in vivo, Wistar rats
[1] = test system: MPTP-lesioned rats (Parkinson's disease animal model); experiment: Episodic-like memory test in MPTP-lesioned rats
Protocol: (§1) Thirty-nine male Wistar rats (306.2±0.9 g; BioLASCO Taiwan Co., Ltd.) were used as experimental animals in the present invention. All experimental procedures were performed according to the NIH Guide for the Care and Use of Laboratory Animals and were approved by the Animal Care Committee of the Chung Shan Medical University (IACUC approval No.: 434). All animals underwent stereotaxic surgery and MPTP were injected into the substantia nigra pars compacta (SNc) in the animals to establish Parkinson's disease animal model. One day after the surgery, the rats received daily dose of intraperitoneal (i.p.) injections of D-cycloserine (DCS) (0, 5, or 10 mg/kg/day) or saline at 18:00 for 13 days. The animals were divided respectively into groups of experimental group 0 (E0), receiving MPTP+saline, experimental group 1 (E1), receiving MPTP+DCS 5 mg/kg/day, experimental group 2 (E2), receiving MPTP+DCS 10 mg/kg/day and Sham-operated group/control group (CR), receiving saline (1 ml/kg/day, i.p.) (also called control group or Sham+saline group). The descriptions of “control group, experimental group 0, experimental group 1 and experimental group 2” were used below.
(§2) For the brain surgery, all animals were intraperitoneal injected with Zoletil (2 mg/kg; Virbac, Carros, Franc) and received stereotaxic surgery after anesthetization. MPTP-HCl (1 μmol in 2 μl of saline; Sigma, Mo., USA) (Da Cunha et al., Behav Brain Res, 2001, 124:9-18; Gevaerd et al., Brain Res Bull, 2001, 55: 101-6) or saline (2 μl) were microinjected into the substantia nigra pars compacta (SNc).
The episodic-like memory test was performed in an open field (60×60×40 cm, without roof allowing rats to aware external distal cues), 13 days after the MPTP lesion. The floor of the open field was divided into 9 areas of equal size. A video camera was mounted 160 cm above the center of the open field to record and analysis the behavior of rats. Two different sets of objects made of metal or plastic were used in the experiment. The objects weighed about 950 g and therefore, they were unmovable by the rats. The two objects differed in the diameter of base, height, color, shape, and surface texture (the metal object: column in shape, 6.5 cm in diameter, 12 cm high, silver-colored, smooth surface; the plastic object: cuboid in shape, a 7.5×5 cm cross section, 15 cm high, pellucid-colored, rough surface). One day before the test, rats were placed individually into the open field for twice and allowed to explore it (once for 5 min), with a 4 h interval, for adapting to the testing environment.
The procedure of episodic-like memory test was consistent with previous reported research (Li and Chao., Neurobiol Learn Mem 2008; 89:192-8). The method comprised two sample trials and one testing trial. In the first sample trial, the rats were placed in the open field with four identical objects (FIG. 1A, upper left), and allowed to explore them for 5 min. After an interval of 60 min, the rats were put into the same open field again and received the second sample trial for 5 min, wherein the objects were replaced with another objects and the spatial configuration was changed (FIG. 1A, lower left). After an additional interval of 60 min, the rats received a testing trial, wherein two identical objects from sample trial 1 (the “old” objects; “O”) and two identical objects from sample trial 2 (the “recent” objects; “R”) were presented. In the testing trial, animals encountered a mixed set consisting of two “O” and two “R” objects. One object from each of the two sets of objects was placed in the “same” location as in the sample trials (Os and Rs). The other two objects were “displaced” to new locations (Od and Rd) (FIG. 1A, lower right). Time spent on exploring the objects was recorded.

[2] = test system: DAergic neurons in striatum and SNc of MPTP-lesioned rats; experiment: Tyrosine hydroxylase (TH) immunostaining of striatum and SNc, image analysis
Protocol: as §1, §2
One day after the test of episodic-like memory, rats were sacrificed under deep anesthesia by CO2. For histological assessment, 5-6 randomly selected rats per group were perfused cardiacly with 4% paraformaldehyde in phosphate-buffered saline (PBS), and the brains were removed rapidly and post-fixed in 20% sucrose solution with 4% paraformaldehyde at 4° C. […]
A microscope (ZEISS AXioskop2, Germany) disposed with a CCD (Optronics, USA) and the Image Pro Plus Software 6.0 (Media Cybernetics, CA, USA) was used for observation. […] The gray level of a given area of interest was measured, and the background staining measured in non-immunoreactive corpus callosum was subtracted. […] The somas of TH immunoreactive neurons located in this area were counted. The density of activated microglia was measured, according to the methods described in the literature (Sugama S, et al., Brain Res, 2003, 964: 288-94). […] Then, the numbers of activated microglial cells in the SNc, striatum, and hippocampus were counted in the areas of interest (measuring 18,769, 36,477, and 18,769 μm^2, respectively). […]

[3] = test system: activated microglia in SNc, striatum and hippocampus of MPTP-lesioned rats; experiment: OX-6 (MHC class II) immunostaining, density of activated microglia
Protocol: as §1, §2
One day after the test of episodic-like memory, rats were sacrificed under deep anesthesia by CO2. For histological assessment, 5-6 randomly selected rats per group were perfused cardiacly with 4% paraformaldehyde in phosphate-buffered saline (PBS), and the brains were removed rapidly and post-fixed in 20% sucrose solution with 4% paraformaldehyde at 4° C. The frozen coronal brain sections were cut into 30 μm and further immunostained with mouse monoclonal antibodies against rat tyrosine hydroxylase (TH) (1:2000; Zymade, USA) or rat MHC class II (OX-6; 1:200; BD Biosciences Pharmingen, CA, USA) at 4° C. overnight, identical to the method used in our previous report (Wang, Wu, Liou, et. al, Behav Neurosci, 2009). In sections containing hippocampus, neurons in the hippocampus was identified by Nissl staining method.
A microscope (ZEISS AXioskop2, Germany) disposed with a CCD (Optronics, USA) and the Image Pro Plus Software 6.0 (Media Cybernetics, CA, USA) was used for observation. The three square areas (measuring 36,477, 18,769, and 2,354 μm^2) were applied respectively to determine the relative optical density of TH immunoreactivity in the striatum and the neuronal density in the SNc and hippocampal CA1 area. The images of TH staining were converted to the gray scale for measuring the density of DAergic projections. The gray level of a given area of interest was measured, and the background staining measured in non-immunoreactive corpus callosum was subtracted. […] The somas of TH immunoreactive neurons located in this area were counted. The density of activated microglia was measured, according to the methods described in the literature (Sugama S, et al., Brain Res, 2003, 964: 288-94). […] Then, the numbers of activated microglial cells in the SNc, striatum, and hippocampus were counted in the areas of interest (measuring 18,769, 36,477, and 18,769 μm^2, respectively). […]

[4] = test system: pyramidal neurons in hippocampal CA1 area of MPTP-lesioned rats; experiment: Nissl staining of hippocampal CA1 pyramidal cell layer, neuronal density; settings: DCS 10 mg/kg/day
Protocol: Thirty-nine male Wistar rats (306.2±0.9 g; BioLASCO Taiwan Co., Ltd.) were used as experimental animals in the present invention. All experimental procedures were performed according to the NIH Guide for the Care and Use of Laboratory Animals and were approved by the Animal Care Committee of the Chung Shan Medical University (IACUC approval No.: 434). All animals underwent stereotaxic surgery and MPTP were injected into the substantia nigra pars compacta (SNc) in the animals to establish Parkinson's disease animal model. One day after the surgery, the rats received daily dose of intraperitoneal (i.p.) injections of D-cycloserine (DCS) (0, 5, or 10 mg/kg/day) or saline at 18:00 for 13 days. […]
A microscope (ZEISS AXioskop2, Germany) disposed with a CCD (Optronics, USA) and the Image Pro Plus Software 6.0 (Media Cybernetics, CA, USA) was used for observation. […] The gray level of a given area of interest was measured, and the background staining measured in non-immunoreactive corpus callosum was subtracted. […] The somas of TH immunoreactive neurons located in this area were counted. The density of activated microglia was measured, according to the methods described in the literature (Sugama S, et al., Brain Res, 2003, 964: 288-94). […]

## N[C@@H]1CONC1=O [DCS, D-4-amino-3-isoxazolidone]
[1]; DCS 10 mg/kg/day
  function of episodic-like memory after MPTP lesion: recovered
[1]; MPTP+DCS 5 mg/kg/day (E1)
  time exploring old object, same location (Os) vs different location (Od), paired t-test: had the trend of significance
  time exploring recent object, displaced (Rd) vs same place (Rs), paired t-test: no differences between exploring Rs and exploring Rd
[1]; MPTP+DCS 5 mg/kg/day i.p. for 13 days (E1)
  total exploration time in the test trial: 54.4 ± 5.9 s
[1]; MPTP+DCS 10 mg/kg/day (E2), P<0.001
  time exploring recent object, displaced (Rd) vs same place (Rs), paired t-test: spent a longer time exploring the displaced object (Rd)
[1]; MPTP+DCS 10 mg/kg/day (E2), P<0.05
  time exploring old object, same location (Os) vs different location (Od), paired t-test: spent a longer time exploring the old object placed in the same location (Os)
[1]; MPTP+DCS 10 mg/kg/day i.p. for 13 days (E2)
  total exploration time in the test trial: 25.4 ± 4.3 s
[2]; DCS 5 mg/kg/day
  MPTP-induced reduction in relative optical density of TH immunoreactivity in the striatum: blocked
  MPTP-induced reduction in the density of DAergic neurons in the SNc: blocked
[2]; DCS 10 mg/kg/day
  MPTP-induced reduction in relative optical density of TH immunoreactivity in the striatum: blocked
  MPTP-induced reduction in the density of DAergic neurons in the SNc: blocked
[3]; DCS 5 mg/kg/day
  MPTP-induced microglial activation in the SNc: suppressed
  MPTP-induced microglial activation in the hippocampus: suppressed
[3]; DCS 10 mg/kg/day
  MPTP-induced microglial activation in the SNc: suppressed
  MPTP-induced microglial activation in the hippocampus: suppressed
[3]; DCS 5 and 10 mg/kg/day groups vs other groups
  microglial activation in the striatum: no significant difference between the groups
[4]
  MPTP-induced decrease of neuronal density in the pyramidal cell layer of hippocampal CA1 area: blocked
